31 sequences from patent publication US20070117770A1, “Human ribosomal DNA (rDNA) and ribosomal RNA (rRNA) nucleic acids and uses thereof” (Cylene Pharmaceuticals, Inc., priority 2005, published 2007) can be followed below.

One may read the pKd as the negative decadic logarithm of the Kd, by convention in mol/L.

pKd: −log10 of the molar value.

T1 sequence (P19338 284-710 limits assumed): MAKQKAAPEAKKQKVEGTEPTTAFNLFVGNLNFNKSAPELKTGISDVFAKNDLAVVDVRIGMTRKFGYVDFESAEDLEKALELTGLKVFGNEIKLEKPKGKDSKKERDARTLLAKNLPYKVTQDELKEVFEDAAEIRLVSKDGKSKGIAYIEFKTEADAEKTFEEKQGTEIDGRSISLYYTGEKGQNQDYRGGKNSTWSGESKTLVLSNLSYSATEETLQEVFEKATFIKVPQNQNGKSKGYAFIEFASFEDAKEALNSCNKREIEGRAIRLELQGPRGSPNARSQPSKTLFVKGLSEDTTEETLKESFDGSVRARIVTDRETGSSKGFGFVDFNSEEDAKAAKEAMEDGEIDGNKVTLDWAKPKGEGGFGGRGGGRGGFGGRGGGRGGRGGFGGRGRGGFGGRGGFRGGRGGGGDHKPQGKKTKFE

One data set has as its target T1, nucleolin (Homo sapiens, UniProt P19338).
T1 construct: without the N-terminal acidic stretches domain
Kind of data set: Filter-binding assay of 32P-labeled quadruplexes and Nucleolin.
Settings: not given
How it is done:
The assay also was conducted in a filter-binding format. […] The protein-quadruplex mixtures were incubated for 30 min at ambient temperature and filtered through mixed cellulose ester membrane filters (Millipore) with gentle suction. The filters were washed twice with […] of binding buffer, dried and OptiPhase ‘SuperMix’ scintillation cocktail (Perkin Elmer) was added to the wells. Radioactivity was assayed with MicroBeta scintillation counter (Perkin Elmer). Binding curves were constructed and apparent Kd's and Bmax's for the complexes were calculated using the GraphPad Prizm software program (GraphPad Software). In the following table, the nucleic acid ligand is designated in the first column using the nomenclature described herein; the second column provides the nucleotide sequence of the nucleic acid ligand; the third column is the conformation of the ligand as determined by circular dichroism (M is mixed, P is parallel, A is antiparallel, C is complex, SS is single-stranded and ND is not determined); the fourth column is the dissociation constant determined by the filter binding assay of nucleolin protein and the nucleic acid ligand; the fifth column is a Bmax constant determined by the filter binding assay, which is the percent of active nucleic acid ligand in each assay; and the sixth column presents the concentration of Compound A-1 required to dissociate half of the complexed nucleic acid ligand and nucleolin protein, as determined by the EMSA assay described above.
For “AGGGGCGGCGGGGAGGAGGAGGGGCGCGGGG (DNA, backbone and methylation of C not given here; listed as Homo sapiens) [Compound 7370T]”, the “Bmax, percent of active nucleic acid ligand” value (“Bmax, percent” below) was determined as 16%. On the same count and under the same terms, in the case of “GGGCCCGCGGGGGGAGGGGGAAGGGGCGGG (DNA, backbone and methylation of C not given here; listed as Homo sapiens) [Compound 6914T]” it was 50%; in that of “AGGGACGCCTGGGGAAGGGAGGGGG (DNA, backbone and methylation of C not given here; listed as Homo sapiens) [Compound 1310T]”, 50%. Still for that read-out and setting: in the case of “AGGGCGGGCGGCGGGGCGGG (DNA, backbone and methylation of C not given here; listed as Homo sapiens) [Compound 7499T]” it was 16%. On the same count and under the same terms, under “AGGGGACACCGGGGGGGCGCCGGGGG (DNA, backbone and methylation of C not given here; listed as Homo sapiens) [Compound 11888T]” stands 47%; under “GGGTCCGGAAGGGGAAGGGTGCCGGCGGGGAGAGAGGGTCGGGGG (DNA, backbone and methylation of C not given here; listed as Homo sapiens) [Compound 7253NT]”, 60%; under “AGGGCGCGGGGTGGGGAGGG (DNA, backbone and methylation of C not given here; listed as Homo sapiens) [Compound 10951T]”, 52%. Turning to “AGGGGGTGGGCGCCGGGAGGGGGG (DNA, backbone and methylation of C not given here; listed as Homo sapiens) [Compound 8904T]”, the “Bmax, percent” value was determined as 31%. On to “AGGGACCGGTGGGGCCGGGGCGGGG (DNA, backbone and methylation of C not given here; listed as Homo sapiens) [Compound 3468T]”, for which the “Bmax, percent” value was determined as 21%.

Regarding “AGGGCGGACGGGAGGGAGCGAGCGGGCGCGGGGG (DNA, backbone and methylation of C not given here; listed as Homo sapiens) [Compound 3500T]”, the “Bmax, percent” value is on record as 20%. For “AGGGTGGGGCGGGGGAGGGCCGCGAGGGGGGTGCCCCGGGCGTGGGGGGGG (DNA, backbone and methylation of C not given here; listed as Homo sapiens) [Compound 10885T]”, the “Bmax, percent” value is on record as 82%. In the case of “AGGGGCTCCGGGGGCGGGGAGCGGGGCGTGGGCGGGAGGAGGGG (DNA, backbone and methylation of C not given here; listed as Homo sapiens) [Compound 10137T]”, the “Bmax, percent” value came out at 65%. Take “AGGGGCGGGGGCGCGGGGAGGAGGGGTGGG (DNA, backbone and methylation of C not given here; listed as Homo sapiens) [Compound 9024T]”: the “Bmax, percent” value stood at 43%.

As to “AGGGAGGGAGACGGGGGGG (DNA, backbone and methylation of C not given here; listed as Homo sapiens) [Compound 5701NT]”, the “Bmax, percent” value is given as 84%. The same measure, in the same setting: under “AGGGAGGACGCGGGGCCGGGGGGCGGAGACGGG (DNA, backbone and methylation of C not given here; listed as Homo sapiens) [Compound 8716T]” stands 49%; under “AGGGGGGAACGGGGGGCGGACGGGGCCGGGGGGGTAGGGCGGGGGG (DNA, backbone and methylation of C not given here; listed as Homo sapiens) [Compound 11345T]”, 32%. Still for that read-out and setting: under “AGGGGAGGGGGGAGGACGGGGAGCGGGGG (DNA, backbone and methylation of C not given here; listed as Homo sapiens) [Compound 10985T]” stands 35%.

Turning to “GGGCGGGGGGGGCGGGGGG (DNA, backbone and methylation of C not given here; listed as Homo sapiens) [Compound 6534NT]”, the “Bmax, percent” value came out at 51%.

Regarding “GGGTCGGGGGGTGGGGCCCGGGCCGGGG (listed as DNA, chemistry not given here; listed as Homo sapiens) [Compound 2957NT]”, the “Bmax, percent” value worked out at 66%. The same measure, in the same setting: in the case of “GGGGGCGGGAACCCCCGGGCGCCTGTGGG (DNA, backbone and methylation of C not given here; listed as Homo sapiens) [Compound 6374NT]” it was 47%; in that of “GGGTGGCGGGGGGGAGAGGGGGG (listed as DNA, chemistry not given here; listed as Homo sapiens) [Compound 6960NT]”, 68%. Still for that read-out and setting: in the case of “GGGGTGGGGGGGAGGG (listed as DNA, chemistry not given here; listed as Homo sapiens) [Compound 13079NT]” it was 37%; in that of “TGGGGAGGGTGGGGAGGGTGGGGAATT (DNA, backbone not given here; listed as Homo sapiens) [Myc27, reference compound]”, 33%; in that of “GGGTGGACGGGGGGGCCTGGTGGGG (listed as DNA, chemistry not given here; listed as Homo sapiens) [Compound 1196NT]”, 41%. Take “AGGGGCGGCGGGGGAAGGGAGGGCGGGTGGAGGGGTCGGGAGGAACGGGGGGCGGG (DNA, backbone and methylation of C not given here; listed as Homo sapiens) [Compound 8440T]”: the “Bmax, percent” value stood at 35%.

The same data set, now with this note: 0.2 nM 32P-labeled quadruplex, read-out: Kd, apparent dissociation constant of nucleolin protein and the nucleic acid ligand.
Turning to “AGGGGCGGCGGGGAGGAGGAGGGGCGCGGGG (DNA, backbone and methylation of C not given here; listed as Homo sapiens) [Compound 7370T]”, the pKd was 8.96. With “GGGCCGGGACGGGGTCCGGGG (listed as DNA, chemistry not given here; listed as Homo sapiens) [Compound 13173NT]”, the pKd was below 7.52.

Turning to “GGGCCCGCGGGGGGAGGGGGAAGGGGCGGG (DNA, backbone and methylation of C not given here; listed as Homo sapiens) [Compound 6914T]”, the negative-log Kd (pKd) is 9.10. As to “AGGGACGCCTGGGGAAGGGAGGGGG (DNA, backbone and methylation of C not given here; listed as Homo sapiens) [Compound 1310T]”, the pKd was 8.36. Still for that read-out and setting: under “AGGGACGGGGACCGGCGGGCCACGGGG (DNA, backbone and methylation of C not given here; listed as Homo sapiens) [Compound 13236T]” stands below 7.52. Same read-out and setting: under “AGGGCGGGCGGCGGGGCGGG (DNA, backbone and methylation of C not given here; listed as Homo sapiens) [Compound 7499T]” stands 8.96; under “AGGGGACACCGGGGGGGCGCCGGGGG (DNA, backbone and methylation of C not given here; listed as Homo sapiens) [Compound 11888T]”, 9.70. Still for that read-out and setting: in the case of “GGGTCCGGAAGGGGAAGGGTGCCGGCGGGGAGAGAGGGTCGGGGG (DNA, backbone and methylation of C not given here; listed as Homo sapiens) [Compound 7253NT]” it was 9.40. On to “AGGGCGCGGGGTGGGGAGGG (DNA, backbone and methylation of C not given here; listed as Homo sapiens) [Compound 10951T]”, for which the pKd was 9.70. Regarding “AGGGGGTGGGCGCCGGGAGGGGGG (DNA, backbone and methylation of C not given here; listed as Homo sapiens) [Compound 8904T]”, the pKd is 9.40. On the same count and under the same terms, in the case of “AGGGACCGGTGGGGCCGGGGCGGGG (DNA, backbone and methylation of C not given here; listed as Homo sapiens) [Compound 3468T]” it was 8.62; in that of “AGGGCGGACGGGAGGGAGCGAGCGGGCGCGGGGG (DNA, backbone and methylation of C not given here; listed as Homo sapiens) [Compound 3500T]”, 8.96; in that of “GTCGTAACGTCGATCAGTTTACGACAT (DNA, backbone and methylation of C not given here; listed as Homo sapiens) [RND27, reference compound]”, below 7.52. The same measure, in the same setting: under “AGGGTGGGGCGGGGGAGGGCCGCGAGGGGGGTGCCCCGGGCGTGGGGGGGG (DNA, backbone and methylation of C not given here; listed as Homo sapiens) [Compound 10885T]” stands 9.70; under “GGAGGAGGAGGA (DNA, backbone not given here; listed as Homo sapiens) [GGA4, reference compound]”, below 7.52.

With “AGGGGCTCCGGGGGCGGGGAGCGGGGCGTGGGCGGGAGGAGGGG (DNA, backbone and methylation of C not given here; listed as Homo sapiens) [Compound 10137T]”, the pKd is 9.40. On the same count and under the same terms, in the case of “AGGGGCGGGGGCGCGGGGAGGAGGGGTGGG (DNA, backbone and methylation of C not given here; listed as Homo sapiens) [Compound 9024T]” it was 9.52; in that of “AGGGAGGGAGACGGGGGGG (DNA, backbone and methylation of C not given here; listed as Homo sapiens) [Compound 5701NT]”, 8.49; in that of “AGGGAGGACGCGGGGCCGGGGGGCGGAGACGGG (DNA, backbone and methylation of C not given here; listed as Homo sapiens) [Compound 8716T]”, 8.51. Still for that read-out and setting: under “AGGGGGGAACGGGGGGCGGACGGGGCCGGGGGGGTAGGGCGGGGGG (DNA, backbone and methylation of C not given here; listed as Homo sapiens) [Compound 11345T]” stands 9.52; under “AGGGGAGGGGGGAGGACGGGGAGCGGGGG (DNA, backbone and methylation of C not given here; listed as Homo sapiens) [Compound 10985T]”, 9.70. “AGGGTTAGGGTTAGGGTTAGGG [hTeI, reference compound]”: the negative-log Kd (pKd) was below 7.52. On the same count and under the same terms, under “GGGCTGGGTCGGTCGGGCTGGGG (listed as DNA, chemistry not given here; listed as Homo sapiens) [Compound 10816NT]” stands below 7.52.

For “GGGCGGGGGGGGCGGGGGG (DNA, backbone and methylation of C not given here; listed as Homo sapiens) [Compound 6534NT]”, the negative-log Kd (pKd) is 8.96. Same read-out and setting: in the case of “GGGTCGGGGGGTGGGGCCCGGGCCGGGG (listed as DNA, chemistry not given here; listed as Homo sapiens) [Compound 2957NT]” it was 8.57; in that of “GGGGGCGGGAACCCCCGGGCGCCTGTGGG (DNA, backbone and methylation of C not given here; listed as Homo sapiens) [Compound 6374NT]”, 8.26. Consider “GGGTGGCGGGGGGGAGAGGGGGG (listed as DNA, chemistry not given here; listed as Homo sapiens) [Compound 6960NT]”, for which the negative logarithm of the Kd (pKd) is 9.30. On the same count and under the same terms, under “GGGGTGGGGGGGAGGG (listed as DNA, chemistry not given here; listed as Homo sapiens) [Compound 13079NT]” stands 8.59.

“TGGGGAGGGTGGGGAGGGTGGGGAATT (DNA, backbone not given here; listed as Homo sapiens) [Myc27, reference compound]”: the negative logarithm of the Kd (pKd) is 8.36. As to “GGGTGGACGGGGGGGCCTGGTGGGG (listed as DNA, chemistry not given here; listed as Homo sapiens) [Compound 1196NT]”, the pKd was 8.38. Still for that read-out and setting: under “AGGGGCGGCGGGGGAAGGGAGGGCGGGTGGAGGGGTCGGGAGGAACGGGGGGCGGG (DNA, backbone and methylation of C not given here; listed as Homo sapiens) [Compound 8440T]” stands 9.52.
